Normal melting temperature and mass density data for 6 compounds are collected here from the NIST ThermoML archive (doi:10.1021/je900785z).

± gives the expanded uncertainty stated by the source.

For the data set the following is noted: for mass density: 298.15 K, 101.33 kPa, Liquid.

As to `O=C1CCCCCN1` [1-aza-2-cycloheptanone], for the setting “Crystal, visual observation”, the Normal melting temperature was determined as 69.06 ± 0.39 °C.

One may read the mass density as mass per unit of volume. In the case of `CC(C)CC(C)(C)C` [2,2,4-trimethylpentane], the mass density amounted to 687.757 ± 0.84 kg/m3.

`CCCCCCCCCC` [decane]: the mass density stood at 726.357 ± 1.2 kg/m3.

With `CCCCCCC` [heptane], the mass density stood at 679.627 ± 0.85 kg/m3.

For `CCCCCCCCC` [nonane], the mass density was determined as 714.064 ± 1.3 kg/m3.

On to `CCCCCCCC` [octane], for which the mass density is listed as 698.636 ± 1.3 kg/m3.
